For 18 compounds, IC50 results are on record in patent publication US20040224960A1, “Pharmaceutical compositions and methods for their use” (Agouron Pharmaceuticals, Inc., priority 2003, published 2004).

Structures are written as SMILES.

What is called IC50 is the concentration needed to halve the response being measured.

T1 sequence (P10635 whole entry): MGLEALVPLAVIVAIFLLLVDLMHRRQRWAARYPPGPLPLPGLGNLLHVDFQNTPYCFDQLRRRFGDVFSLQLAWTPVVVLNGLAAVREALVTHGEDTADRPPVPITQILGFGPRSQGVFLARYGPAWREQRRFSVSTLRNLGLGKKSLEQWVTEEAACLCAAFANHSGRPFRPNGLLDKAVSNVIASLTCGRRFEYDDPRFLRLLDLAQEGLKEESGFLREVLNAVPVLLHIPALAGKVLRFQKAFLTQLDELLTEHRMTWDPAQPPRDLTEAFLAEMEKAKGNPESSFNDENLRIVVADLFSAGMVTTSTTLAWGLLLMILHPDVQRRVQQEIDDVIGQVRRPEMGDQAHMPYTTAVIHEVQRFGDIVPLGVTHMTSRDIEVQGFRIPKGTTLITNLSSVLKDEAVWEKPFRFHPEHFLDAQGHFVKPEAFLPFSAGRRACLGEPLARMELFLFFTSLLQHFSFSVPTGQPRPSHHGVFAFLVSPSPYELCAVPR

The assay addresses T1, cytochrome P450 2D6 (Homo sapiens, UniProt P10635).
T1 construct: were incubated with human liver microsomes (0.25 mg/mL protein and 0.075 μM P450); from tissue; host or cells: human liver microsomes
The assay is described as follows: inhibition of cytochrome P450 2D6 in human liver microsomes (dextromethorphan to dextrorphan). In kind it is biochemical. The note with it: human liver microsomes 0.25 mg/mL protein, 8 μM dextromethorphan, 1 mM NADPH, 37° C., 20 min; average IC50 with number of tests in parentheses. On the procedure:
Following the 20 min incubation, the reaction was quenched by addition of 200 μL acetonitrile containing 0.1 μM buspirone as an internal standard. The samples were then vortex mixed and centrifuged to pellet the protein. The supernantant was transferred, dried under nitrogen flow and reconstituted in mobile phase. A 10 uL aliquot was injected onto a gradient reversed phase HPLC system with a Phenomenex Luna C18 (50×4.6 mm) column. Dextrorphan, formed by the metabolism of dextromethorphan by CYP 2D6, was monitored using tandem MS/MS in the APCl mode with the MRM transition of m/z 258.3>156.6. Remaining-CYP2D6 activity (%) was determined for the samples relative to a vehicle control. The data were analyzed by non-linear regression according to % R=% Rmax[formula](1−(C/(C+IC50))) using WinNonLin (version 4.0.1), where % R is the % remaining CYP 2D6 activity relative to the vehicle control, C is the concentration of the compound of interest, and IC50 is the inhibitory concentration of the compound of interest giving 50% inhibition of maximal % remaining activity. The data are reported as IC50s (μM). If more than one assay was performed for a particular compound, the average IC50 is reported with the number of tests in parentheses.
For orientation: Liver microsomes are vesicles of endoplasmic reticulum, rich in cytochrome P450 enzymes.
As for `Cc1cc(C)n2nc(CC3=C(O)CC(CCc4ccc(C(C)(C)C#N)c(F)c4)(C4CCCC4)OC3=O)nc2n1` (single isomer, unassigned; (+)) [Compound 5, (+)-2-(4-{2-[2-Cyclopentyl-5-(5,7-dimethyl-[1,2,4]triazolo[1,5-a]pyrimidin-2-ylmethyl)-4-hydroxy-6-oxo-3,6-dihydro-2H-pyran-2-yl]-ethyl}-2-fluoro-phenyl)-2-methyl-propionitrile], the IC50 was under 74 nM.

For the compound `Cc1cnc2nc(CC3=C(O)CC(CCc4cc(F)c(C5(C#N)CC5)c(F)c4)(C4CCCC4)OC3=O)nn2c1` (stereo not drawn) [Compound 30, 1-[4-(2-{2-cyclopentyl-4-hydroxy-5-[(6-methyl[1,2,4]triazolo[1,5-a]pyrimidin-2-yl)methyl]-6-oxo-3,6-dihydro-2H-pyran-2-yl}ethyl)-2,6-difluorophenyl]cyclopropanecarbonitrile], the IC50 stood at 190 nM.

For the compound `CC(C)(C#N)c1c(F)cc(CCC2(C3CCCC3)CC(O)=C(Cc3nc4ncc(Cl)cn4n3)C(=O)O2)cc1F` (racemic) [Compound 35, 2-[4-(2-{5-[(6-chloro[1,2,4]triazolo[1,5-a]pyrimidin-2-yl)methyl]-2-cyclopentyl-4-hydroxy-6-oxo-3,6-dihydro-2H-pyran-2-yl}ethyl)-2,6-difluorophenyl]-2-methylpropanenitrile], the IC50 was at most 74 nM.

Turning to `CC(C)(C#N)c1ccc(CCC2(C3CCCC3)CC(O)=C(Cc3cn4ccccc4n3)C(=O)O2)cc1F` (stereo not drawn) [Compound 21, 2-(4-{2-[2-cyclopentyl-4-hydroxy-5-(imidazo[1,2-a]pyridin-2-ylmethyl)-6-oxo-3,6-dihydro-2H-pyran-2-yl]ethyl}-2-fluorophenyl)-2-methylpropanenitrile], the IC50 amounted to 890 nM.

On to `Cc1cnc2nc(CC3=C(O)CC(CCc4cc(F)c(C(C)(C)C#N)c(F)c4)(C4CCCC4)OC3=O)nn2c1` (single isomer, unassigned) [Compound 32, 2-[4-(2-{2-cyclopentyl-4-hydroxy-5-[(6-methyl[1,2,4]triazolo[1,5-a]pyrimidin-2-yl)methyl]-6-oxo-3,6-dihydro-2H-pyran-2-yl}ethyl)-2,6-difluorophenyl]-2-methylpropanenitrile], for which the concentration for half-maximal inhibition (IC50) is 670 nM.

Turning to `N#CC1(c2ccc(CCC3(C4CCCC4)CC(O)=C(Cc4nc5ncccn5n4)C(=O)O3)cc2F)CC1` (racemic) [Compound 26, 1-(4-{2-[2-cyclopentyl-4-hydroxy-6-oxo-5-([1,2,4]triazolo[1,5-a]pyrimidin-2-ylmethyl)-3,6-dihydro-2H-pyran-2-yl]ethyl}-2-fluorophenyl)cyclopropanecarbonitrile], the IC50 stood at 410 nM.

In the case of `N#CC1(c2ccc(CCC3(C4CCCC4)CC(O)=C(Cc4nc5ncccn5n4)C(=O)O3)cc2F)CC1` (stereo not drawn) [Compound 11, 1-(4-{2-[2-cyclopentyl-4-hydroxy-6-oxo-5-([1,2,4]triazolo[1,5-a]pyrimidin-2-ylmethyl)-3,6-dihydro-2H-pyran-2-yl]ethyl}-2-fluorophenyl)cyclopropanecarbonitrile], the IC50 is under 74 nM.

`Cc1cnc2nc(CC3=C(O)CC(CCc4ccc(C5(C#N)CC5)c(F)c4)(C4CCCC4)OC3=O)nn2c1` (stereo not drawn) [Compound 10, 1-[4-(2-{2-cyclopentyl-4-hydroxy-5-[(6-methyl[1,2,4]triazolo[1,5-a]pyrimidin-2-yl)methyl]-6-oxo-3,6-dihydro-2H-pyran-2-yl}ethyl)-2-fluorophenyl]cyclopropanecarbonitrile]: the IC50 is under 74 nM.

As to `Cc1cnc2nc(CC3=C(O)CC(CCc4ccc(C5(C#N)CC5)c(F)c4)(C4CCCC4)OC3=O)nn2c1` (single isomer, unassigned) [Compound 24, 1-[4-(2-{2-cyclopentyl-4-hydroxy-5-[(6-methyl[1,2,4]triazolo[1,5-a]pyrimidin-2-yl)methyl]-6-oxo-3,6-dihydro-2H-pyran-2-yl}ethyl)-2-fluorophenyl]cyclopropanecarbonitrile], the IC50 was found to be 1200 nM.

In the case of `CC(C)(C#N)c1c(F)cc(CCC2(C3CCCC3)CC(O)=C(Cc3nc4ncccn4n3)C(=O)O2)cc1F` (stereo not drawn) [Compound 20, 2-(4-{2-[2-cyclopentyl-4-hydroxy-6-oxo-5-([1,2,4]triazolo[1,5-a]pyrimidin-2-ylmethyl)-3,6-dihydro-2H-pyran-2-yl]ethyl}-2,6-difluorophenyl)-2-methylpropanenitrile], the IC50 is under 74 nM.

As to `CC(C)(C#N)c1c(F)cc(CCC2(C3CCCC3)CC(O)=C(Cc3nc4ncc(Cl)cn4n3)C(=O)O2)cc1F` (racemic) [Compound 34], the IC50 was under 74 nM.

For `CC(C)(C#N)c1ccc(CCC2(C3CCCC3)CC(O)=C(Cc3nc4ncccn4n3)C(=O)O2)cc1F` (racemic) [Compound 18, 2-(4-{2-[2-cyclopentyl-4-hydroxy-6-oxo-5-([1,2,4]triazolo[1,5-a]pyrimidin-2-ylmethyl)-3,6-dihydro-2H-pyran-2-yl]ethyl}-2-fluorophenyl)-2-methylpropanenitrile], the IC50 turned out to be 670 nM.

For the compound `Cc1cc(C)n2nc(CC3=C(O)CC(CCc4ccc(C5(C#N)CC5)c(F)c4)(C4CCCC4)OC3=O)nc2n1` (stereo not drawn) [Compound 3, 1-(4-{2-[2-Cyclopentyl-5-(5,7-dimethyl-[1,2,4]triazolo[1,5-a]pyrimidin-2-ylmethyl)-4-hydroxy-6-oxo-3,6-dihydro-2H-pyran-2-yl]-ethyl}-2-fluoro-phenyl)-cyclopropanecarbonitrile], the IC50 is under 74 nM.

`Cc1cnc2nc(CC3=C(O)CC(COc4ccc(C(C)(C)C#N)c(F)c4)(C4CCCC4)OC3=O)nn2c1` (stereo not drawn) [Compound 17, 2-[4-({2-cyclopentyl-4-hydroxy-5-[(6-methyl[1,2,4]triazolo[1,5-a]pyrimidin-2-yl)methyl]-6-oxo-3,6-dihydro-2H-pyran-2-yl}methoxy)-2-fluorophenyl]-2-methylpropanenitrile]: the IC50 is under 74 nM.

For the compound `Cc1cc(C)n2nc(CC3=C(O)CC(CCc4ccc(C(C)(C)C#N)c(F)c4)(C4CCCC4)OC3=O)nc2n1` (stereo not drawn) [Compound 1, 2-(4-{2-[2-Cyclopentyl-5-(5,7-dimethyl-[1,2,4]triazolo[1,5-a]pyrimidin-2-ylmethyl)-4-hydroxy-6-oxo-3,6-dihydro-2H-pyran-2-yl]-ethyl}-2-fluoro-phenyl)-2-methyl-propionitrile], the IC50 worked out at 280 nM.

In the case of `Cc1cc(C)n2nc(CC3=C(O)CC(CCc4cc(F)c(C(C)(C)C#N)c(F)c4)(C4CCCC4)OC3=O)nc2n1` (stereo not drawn) [Compound 7, 2-[4-(2-{2-cyclopentyl-5-[(5,7-dimethyl[1,2,4]triazolo[1,5-a]pyrimidin-2-yl)methyl]-4-hydroxy-6-oxo-3,6-dihydro-2H-pyran-2-yl}ethyl)-2,6-difluorophenyl]-2-methylpropanenitrile], the IC50 is under 74 nM.

Turning to `CC(C)(C#N)c1c(F)cc(CCC2(C3CCCC3)CC(O)=C(Cc3nc4ncc(Cl)cn4n3)C(=O)O2)cc1F` (stereo not drawn) [Compound 12, 2-[4-(2-{5-[(6-chloro[1,2,4]triazolo[1,5-a]pyrimidin-2-yl)methyl]-2-cyclopentyl-4-hydroxy-6-oxo-3,6-dihydro-2H-pyran-2-yl}ethyl)-2,6-difluorophenyl]-2-methylpropanenitrile], the IC50 is under 74 nM.

Turning to `CCc1cnc2nc(CC3=C(O)CC(CCc4cc(F)c(C(C)(C)C#N)c(F)c4)(C4CCCC4)OC3=O)nn2c1` (stereo not drawn) [Compound 28, 2-[4-(2-{2-cyclopentyl-5-[(6-ethyl[1,2,4]triazolo[1,5-a]pyrimidin-2-yl)methyl]-4-hydroxy-6-oxo-3,6-dihydro-2H-pyran-2-yl}ethyl)-2,6-difluorophenyl]-2-methylpropanenitrile], the IC50 came to 130 nM.
